For the experiment, the target named is T1, human OX2R (Homo sapiens, UniProt O43614).
T1 construct: expressed in transfected cells; host or cells: CHO (Chinese hamster ovary) cells, grown under G418 selection
T1 sequence (O43614 1-444): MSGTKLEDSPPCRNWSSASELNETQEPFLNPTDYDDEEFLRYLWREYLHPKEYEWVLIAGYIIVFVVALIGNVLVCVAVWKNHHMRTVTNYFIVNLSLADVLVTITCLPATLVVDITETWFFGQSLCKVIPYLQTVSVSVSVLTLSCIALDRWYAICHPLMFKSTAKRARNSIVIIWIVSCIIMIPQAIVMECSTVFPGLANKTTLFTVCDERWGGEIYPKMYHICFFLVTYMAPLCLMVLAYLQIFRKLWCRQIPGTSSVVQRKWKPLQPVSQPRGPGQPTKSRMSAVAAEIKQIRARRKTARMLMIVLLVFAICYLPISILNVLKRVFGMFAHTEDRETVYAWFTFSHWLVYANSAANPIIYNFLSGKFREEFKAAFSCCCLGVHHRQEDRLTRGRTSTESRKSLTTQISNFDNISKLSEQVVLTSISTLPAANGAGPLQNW
The experiment in a line: IP-One (IPOne) orexin receptor agonist assay in CHO cells expressing human OX2R. It is filed as cell-based. The conditions noted are these: for EC50: CHO cells expressing human OX2R, IP-One IP-1 detection, 2 hours incubation, four parameter logistic fit, read-out: OX2R Potency, EC50; for % of reference agonist maximal effect: human OX2R, percentage of sample raw value/mean max effect (reference compound at 1 uM with 100% activity). In outline: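 CHO cells stably expressing human OX2R were stimulated with compound (10-point ½-log dilutions) for 2 h at 37 °C. IP-1 accumulation was read by HTRF (IP-One, 665/620 nm). EC50 from a four-parameter fit; % effect relative to 1 μM reference agonist control.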

Structures are written as SMILES.

Usually EC50 stands for the concentration that produces a half-maximal response.

As to `COCC(C)NC(=O)N1CCC[C@H](c2cc[nH]n2)[C@@H]1CO[C@H]1CC[C@@H](c2ccccc2)CC1` (relative stereo) [Example 126, (CIS)-N-(1-methoxypropan-2-yl)-2-((((CIS)-4-phenylcyclohexyl)oxy)methyl)-3-(1H-pyrazol-3-yl)piperidine-1-carboxamide], the EC50 stood at 0.944 µM and the “% of reference agonist maximal effect” value is recorded as 100%.

For `CC1CC1C(=O)N1CCC[C@H](c2cc[nH]n2)[C@@H]1CO[C@H]1CC[C@@H](C(C)C)CC1` (relative stereo) [Example 76, ((CIS)-2-((((CIS)-4-isopropylcyclohexyl)oxy)methyl)-3-(1H-pyrazol-3-yl)piperidin-1-yl)(2-methylcyclopropyl)methanone], the 50% effective concentration (EC50) is 4.13 µM and the “% of reference agonist maximal effect” value came to 94.6%.

Regarding `CCNC(=O)N1CCCC(c2[nH]ncc2C)C1COC1CCC(C(C)C)CC1` (single isomer, unassigned) [Example 58, N-ethyl-2-(((4-isopropylcyclohexyl)oxy)methyl)-3-(4-methyl-1H-pyrazol-5-yl)piperidine-1-carboxamide], the EC50 was above 10 µM and the “% of reference agonist maximal effect” value is given as 0%.

With `COC(=O)N1CCC[C@H](c2ncn[nH]2)[C@@H]1CO[C@H]1CC[C@@H](c2ccccc2)CC1` (relative stereo) [Example 26, methyl (CIS)-2-((((CIS)-4-phenylcyclohexyl)oxy)methyl)-3-(1H-1,2,4-triazol-5-yl)piperidine-1-carboxylate], the EC50 was determined as 2.43 µM and the “% of reference agonist maximal effect” value stood at 83.6%.

`CCNC(=O)N1CCC[C@H](c2n[nH]cc2C)[C@@H]1CO[C@H]1CC[C@@H](c2cccc(F)c2)CC1` (racemic) [Example 10, (CIS)-N-ethyl-2-((((CIS)-4-(3-fluorophenyl)cyclohexyl)oxy)methyl)-3-(4-methyl-1H-pyrazol-3-yl)piperidine-1-carboxamide]: the half-maximal effective concentration (EC50) turned out to be 0.0048 µM and the “% of reference agonist maximal effect” value is 100.8%.

On to `COC(=O)N1CCC[C@@H](c2n[nH]cc2Cl)[C@H]1CO[C@H]1CC[C@@H](c2ccccc2)CC1` (single isomer, unassigned) [Example 46], for which the EC50 was above 10 µM and the “% of reference agonist maximal effect” value came out at 0%.

As to `CC(C)[C@H]1CC[C@@H](OC[C@H]2[C@@H](c3cc[nH]n3)CCCN2C(=O)C2CCCC2)CC1` (relative stereo) [Example 83, cyclopentyl((CIS)-2-((((CIS)-4-isopropylcyclohexyl)oxy)methyl)-3-(1H-pyrazol-3-yl)piperidin-1-yl)methanone], the EC50 was found to be 7.08 µM and the “% of reference agonist maximal effect” value worked out at 73.9%.

Take `CC(F)(F)COC(=O)N1CCC[C@H](c2cc[nH]n2)[C@@H]1CO[C@H]1CC[C@@H](c2ccccc2)CC1` (relative stereo) [Example 110, 2,2-difluoropropyl (CIS)-2-((((CIS)-4-phenylcyclohexyl)oxy)methyl)-3-(1H-pyrazol-3-yl)piperidine-1-carboxylate]: the EC50 amounted to 6.23 µM and the “% of reference agonist maximal effect” value is reported as 58.5%.

Turning to `CCNC(=O)N1CCC[C@H](c2ccnn2C)[C@@H]1CO[C@H]1CC[C@@H](c2ccccc2)CC1` (relative stereo) [Example 22, (CIS)-N-ethyl-3-(1-methyl-1H-pyrazol-5-yl)-2-((((CIS)-4-phenylcyclohexyl)oxy)methyl)piperidine-1-carboxamide], the EC50 is 6 µM and the “% of reference agonist maximal effect” value is reported as 83.7%.

For the compound `C#CCCC(=O)N1CCC[C@H](c2cc[nH]n2)[C@@H]1CO[C@H]1CC[C@@H](C(C)C)CC1` (relative stereo) [Example 85, 1-((CIS)-2-((((CIS)-4-isopropylcyclohexyl)oxy)methyl)-3-(1H-pyrazol-3-yl)piperidin-1-yl)pent-4-yn-1-one], the EC50 was 7.58 µM and the “% of reference agonist maximal effect” value is 87%.

`COC(=O)N1CCC[C@H](c2n[nH]cc2CO)[C@@H]1CO[C@H]1CC[C@@H](c2ccccc2)CC1` [Example 53]: the EC50 was determined as 0.104 µM and the “% of reference agonist maximal effect” value stood at 100.5%.

With `CC[C@H]1C[C@@H]1C(=O)N1CCC[C@H](c2cc[nH]n2)[C@@H]1COC1CCC(c2ccccc2)CC1` (stereo in doubt) [Example 90, 5-((CIS)-1-((TRANS)-2-ethylcyclopropane-1-carbonyl)-2-((((CIS)-4-phenylcyclohexyl)oxy)methyl)piperidin-3-yl)-1H-pyrazol-2-ium 2,2,2-trifluoroacetate], the EC50 was found to be 1.14 µM and the “% of reference agonist maximal effect” value is on record as 90.7%.

Consider `COC(=O)N1CCC[C@H](c2n[nH]cc2C)[C@@H]1COC1CCN(c2ncccn2)CC1` (relative stereo) [Example 6, Methyl (CIS)-3-(4-methyl-1H-pyrazol-3-yl)-2-(((1-(pyrimidin-2-yl)piperidin-4-yl)oxy)methyl)piperidine-1-carboxylate], for which the EC50 amounted to 1.27 µM and the “% of reference agonist maximal effect” value was 96.6%.

Consider `O=C(NCC1CCC1)N1CCC[C@H](c2cc[nH]n2)[C@@H]1CO[C@H]1CC[C@@H](c2ccccc2)CC1` (relative stereo) [Example 125, (CIS)-N-(cyclobutylmethyl)-2-((((CIS)-4-phenylcyclohexyl)oxy)methyl)-3-(1H-pyrazol-3-yl)piperidine-1-carboxamide], for which the EC50 was 0.0224 µM and the “% of reference agonist maximal effect” value is recorded as 99.1%.

As for `CC(C)(O)C(=O)N1CCC[C@H](c2cc[nH]n2)[C@@H]1CO[C@H]1CC[C@@H](c2ccccc2)CC1` (relative stereo) [Example 77, 2-hydroxy-2-methyl-1-((CIS)-2-((((CIS)-4-phenylcyclohexyl)oxy)methyl)-3-(1H-pyrazol-3-yl)piperidin-1-yl)propan-1-one], the EC50 came out at 4.34 µM and the “% of reference agonist maximal effect” value was determined as 96.1%.

As for `COC(=O)N1[C@H](C)CC(c2[nH]ncc2C)[C@@H]1CO[C@H]1CC[C@@H](c2ccccc2)CC1` (stereo partly drawn) [Example 36, Methyl (2R,5R)-5-methyl-3-(4-methyl-1H-pyrazol-5-yl)-2-((((CIS)-4-phenylcyclohexyl)oxy)methyl)pyrrolidine-1-carboxylate], the EC50 was 1.03 µM and the “% of reference agonist maximal effect” value is reported as 96.3%.

Turning to `CCC[C@](C)(F)C(=O)N1CCC[C@H](c2cc[nH]n2)[C@@H]1COC1CCC(C(C)C)CC1` (stereo partly drawn) [Example 89, (S)-2-fluoro-1-((CIS)-2-((((CIS)-4-isopropylcyclohexyl)oxy)methyl)-3-(1H-pyrazol-3-yl)piperidin-1-yl)-2-methylpentan-1-one], the EC50 was found to be 9.77 µM and the “% of reference agonist maximal effect” value is recorded as 55.8%.

Consider `CC[C@@H](C)OC(=O)N1CCC[C@H](c2cc[nH]n2)[C@@H]1CO[C@H]1CC[C@@H](c2ccccc2)CC1` [Example 108, (R)-sec-butyl (CIS)-2-((((CIS)-4-phenylcyclohexyl)oxy)methyl)-3-(1H-pyrazol-3-yl)piperidine-1-carboxylate], for which the EC50 worked out at 5.27 µM and the “% of reference agonist maximal effect” value is reported as 60.7%.

With `CCNC(=O)N1CCC[C@@H](c2ccn[nH]2)[C@H]1CO[C@H]1CC[C@@H](C(C)C)CC1` (single isomer, unassigned) [Example 5], the EC50 came to 3.19 µM and the “% of reference agonist maximal effect” value is given as 99.6%.

Consider `C[C@H]1C[C@H]1C(=O)N1CCC[C@H](c2cc[nH]n2)[C@@H]1COC1CCC(c2ccccc2)CC1` (stereo partly drawn) [Example 69, ((CIS)-2-methylcyclopropyl)((2R,3S)-2-((((1s,4S)-4-phenylcyclohexyl)oxy)methyl)-3-(1H-pyrazol-3-yl)piperidin-1-yl)methanone], for which the EC50 worked out at 0.278 µM and the “% of reference agonist maximal effect” value amounted to 99.2%.

Regarding `O=C(NCC(F)(F)F)N1CCCC(c2ccn[nH]2)C1CO[C@H]1CC[C@@H](c2c(F)ccc(F)c2F)CC1` (stereo partly drawn) [Example 34], the EC50 worked out at 0.0178 µM and the “% of reference agonist maximal effect” value was found to be 99.9%.

For `CC[C@@H](C)NC(=O)N1CCC[C@H](c2cc[nH]n2)[C@@H]1CO[C@H]1CC[C@@H](c2ccccc2)CC1` [Example 128, (CIS)-N-((R)-sec-butyl)-2-((((CIS)-4-phenylcyclohexyl)oxy)methyl)-3-(1H-pyrazol-3-yl)piperidine-1-carboxamide], the EC50 amounted to 5.94 µM and the “% of reference agonist maximal effect” value came out at 69.6%.

Turning to `CC(C)COC(=O)N1CCC[C@H](c2cc[nH]n2)[C@@H]1CO[C@H]1CC[C@@H](c2ccccc2)CC1` (relative stereo) [Example 105, isobutyl (CIS)-2-((((CIS)-4-phenylcyclohexyl)oxy)methyl)-3-(1H-pyrazol-3-yl)piperidine-1-carboxylate], the EC50 came to 3.94 µM and the “% of reference agonist maximal effect” value came out at 64.9%.

As to `COC(=O)COC(=O)N1CCC[C@H](c2cc[nH]n2)[C@@H]1CO[C@H]1CC[C@@H](c2ccccc2)CC1` (relative stereo) [Example 98, 2-methoxy-2-oxoethyl (CIS)-2-((((CIS)-4-phenylcyclohexyl)oxy)methyl)-3-(1H-pyrazol-3-yl)piperidine-1-carboxylate], the half-maximal effective concentration (EC50) worked out at 1.02 µM and the “% of reference agonist maximal effect” value is recorded as 98.7%.

These data come from patent publication US12552767B2, “3-heteroaryl pyrrolidine and piperidine orexin receptor agonists” (Merck Sharp & Dohme LLC, priority 2020, dated 2026).
